Test results taken from ChEMBL document CHEMBL1201862, “PubChem BioAssay data set” (2004).
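Grown in 96-well plates, cells were treated for 48 hours with each compound at five concentrations. Insufficient inhibition: endpoint recorded as highest concentration tested. GI50 marks 50% less growth.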 Activity calls are given as the source filed them. No stated cut-off is given here; in the data, active = GI50 up to about 1.1 µM and inactive = higher.

Tests used:
Assay in all cases: NCI anticancer screen, dose series, 48 h
HCC 2998 = system: HCC 2998
OVCAR-4 = system: OVCAR-4
NCI-H23 = system: NCI-H23
K562 = system: K562
786-0 = system: 786-0
NCI-H226 = system: NCI-H226
MCF7 = system: MCF7
A549 = system: A549
LOX IMVI = system: LOX IMVI
HCT-15 = system: HCT-15
HOP-62 = system: HOP-62
SW-620 = system: SW-620
SF-295 = system: SF-295
HT-29 = system: HT-29
HOP-92 = system: HOP-92
BT-549 = system: BT-549
MDA-MB-435 = system: MDA-MB-435
COLO 205 = system: COLO 205
SN12C = system: SN12C
SNB-19 = system: SNB-19
EKVX = system: EKVX
UO-31 = system: UO-31
OVCAR-5 = system: OVCAR-5
NCI-H460 = system: NCI-H460
PC-3 = system: PC-3
HCT-116 = system: HCT-116
SK-MEL-5 = system: SK-MEL-5
OVCAR-3 = system: OVCAR-3
U-251 = system: U-251
SNB-75 = system: SNB-75
SF-268 = system: SF-268
SK-MEL-28 = system: SK-MEL-28
UACC-257 = system: UACC-257
M14 = system: M14
NCI/ADR-RES = system: NCI/ADR-RES
IGROV-1 = system: IGROV-1
ACHN = system: ACHN
SK-MEL-2 = system: SK-MEL-2
CCRF-CEM = system: CCRF-CEM
TK-10 = system: TK-10
MDA-MB-231 = system: MDA-MB-231
SF-539 = system: SF-539
MDA-N = system: MDA-N
DU-145 = system: DU-145
NCI-H522 = system: NCI-H522
Malme-3M = system: Malme-3M
OVCAR-8 = system: OVCAR-8
A498 = system: A498
HL-60 = system: HL-60
MOLT-4 = system: MOLT-4
CAKI-1 = system: CAKI-1
Hs-578T = system: Hs-578T
RPMI-8226 = system: RPMI-8226
RXF 393 = system: RXF 393
SK-OV-3 = system: SK-OV-3
KM12 = system: KM12
T47D = system: T47D
UACC-62 = system: UACC-62

With `O=S(=O)(N1CCCCN(S(=O)(=O)C(F)(F)F)CCCN(S(=O)(=O)C(F)(F)F)CCCCN(S(=O)(=O)C(F)(F)F)CCCN(S(=O)(=O)C(F)(F)F)CCCCN(S(=O)(=O)C(F)(F)F)CCCN(S(=O)(=O)C(F)(F)F)CCCCN(S(=O)(=O)C(F)(F)F)CCC1)C(F)(F)F` the GI50 (HCC 2998) was > 31.6 µM (inactive), the GI50 (OVCAR-4) was > 100 µM (inactive) and the GI50 (NCI-H23) was > 31.6 µM (inactive). For the same compound, the GI50 (K562) was > 31.6 µM (inactive), the GI50 (786-0) was > 100 µM (inactive) and the GI50 (NCI-H226) was > 31.6 µM (inactive). The GI50 (MCF7) was > 10 µM (inactive), the GI50 (A549) was > 31.6 µM (inactive) and the GI50 (LOX IMVI) was > 31.6 µM (inactive). The GI50 (HCT-15) was over 31.6 µM, the GI50 (HOP-62) was > 31.6 µM (inactive) and the GI50 (SW-620) was > 31.6 µM (inactive). For the same compound, the GI50 (SF-295) was > 31.6 µM (inactive), the GI50 (HT-29) was > 31.6 µM (inactive) and the GI50 (HOP-92) was 11.1 µM (inactive). For the same compound, the GI50 (BT-549) was > 31.6 µM (inactive), the GI50 (MDA-MB-435) was > 31.6 µM (inactive) and the GI50 (COLO 205) was > 100 µM (inactive). The GI50 (SN12C) was > 31.6 µM (inactive), the GI50 (SNB-19) was > 31.6 µM (inactive) and the GI50 (EKVX) was > 31.6 µM (inactive). For the same compound, the GI50 (UO-31) was > 31.6 µM (inactive), the GI50 (OVCAR-5) was > 100 µM (inactive) and the GI50 (NCI-H460) was > 31.6 µM (inactive). For the same compound, the GI50 (PC-3) was > 31.6 µM (inactive), the GI50 (HCT-116) was > 31.6 µM (inactive) and the GI50 (SK-MEL-5) was > 31.6 µM (inactive). The GI50 (OVCAR-3) was > 31.6 µM (inactive), the GI50 (U-251) was > 100 µM (inactive) and the GI50 (SNB-75) was > 31.6 µM (inactive). For the same compound, the GI50 (SF-268) was > 31.6 µM (inactive), the GI50 (SK-MEL-28) was > 31.6 µM (inactive) and the GI50 (UACC-257) was > 31.6 µM (inactive). The GI50 (M14) was > 31.6 µM (inactive), the GI50 (NCI/ADR-RES) was > 31.6 µM (inactive) and the GI50 (IGROV-1) was > 31.6 µM (inactive). The GI50 (ACHN) was > 31.6 µM (inactive), the GI50 (SK-MEL-2) was > 100 µM (inactive) and the GI50 (CCRF-CEM) was > 31.6 µM (inactive). The GI50 (TK-10) was > 31.6 µM (inactive), the GI50 (MDA-MB-231) was > 31.6 µM (inactive) and the GI50 (SF-539) was > 31.6 µM (inactive). For the same compound, the GI50 (MDA-N) was > 31.6 µM (inactive), the GI50 (DU-145) was > 31.6 µM (inactive) and the GI50 (NCI-H522) was > 31.6 µM (inactive). For the same compound, the GI50 (Malme-3M) was > 31.6 µM (inactive), the GI50 (OVCAR-8) was > 31.6 µM (inactive) and the GI50 (A498) was > 31.6 µM (inactive). For the same compound, the GI50 (HL-60) was > 31.6 µM (inactive), the GI50 (MOLT-4) was > 31.6 µM (inactive) and the GI50 (CAKI-1) was > 31.6 µM (inactive). For the same compound, the GI50 (Hs-578T) was > 31.6 µM (inactive), the GI50 (RPMI-8226) was 78.7 µM (inactive) and the GI50 (RXF 393) was > 31.6 µM (inactive). For the same compound, the GI50 (SK-OV-3) was > 31.6 µM (inactive), the GI50 (KM12) was > 31.6 µM (inactive) and the GI50 (T47D) was > 31.6 µM (inactive). For the same compound, the GI50 (UACC-62) was > 31.6 µM (inactive).

In the case of `Cn1c(=O)n(-c2c3ccccc3c(Cl)c3ccccc23)n(C(C)(C)C)c1=O`, the GI50 (HCC 2998) is reported as > 100 µM (inactive), the GI50 (NCI-H23) is reported as > 100 µM (inactive) and the GI50 (K562) is reported as > 100 µM (inactive). The GI50 (786-0) was 48.8 µM (inactive), the GI50 (NCI-H226) was 44.6 µM (inactive) and the GI50 (MCF7) was > 100 µM (inactive). The GI50 (A549) was > 100 µM (inactive), the GI50 (LOX IMVI) was > 100 µM (inactive) and the GI50 (HCT-15) was over 100 µM. For the same compound, the GI50 (HOP-62) was 38.4 µM (inactive), the GI50 (SW-620) was > 100 µM (inactive) and the GI50 (SF-295) was > 100 µM (inactive). The GI50 (HT-29) was > 100 µM (inactive), the GI50 (HOP-92) was 57.7 µM (inactive) and the GI50 (BT-549) was > 100 µM (inactive). The GI50 (MDA-MB-435) was > 100 µM (inactive), the GI50 (COLO 205) was > 100 µM (inactive) and the GI50 (SN12C) was > 100 µM (inactive). For the same compound, the GI50 (SNB-19) was > 100 µM (inactive), the GI50 (EKVX) was > 100 µM (inactive) and the GI50 (UO-31) was > 100 µM (inactive). For the same compound, the GI50 (OVCAR-5) was > 100 µM (inactive), the GI50 (NCI-H460) was > 100 µM (inactive) and the GI50 (PC-3) was > 100 µM (inactive). For the same compound, the GI50 (HCT-116) was > 100 µM (inactive), the GI50 (SK-MEL-5) was > 100 µM (inactive) and the GI50 (OVCAR-3) was > 100 µM (inactive). The GI50 (U-251) was > 100 µM (inactive), the GI50 (SNB-75) was 12.1 µM (inactive) and the GI50 (SF-268) was 59.8 µM (inactive). For the same compound, the GI50 (SK-MEL-28) was > 100 µM (inactive), the GI50 (UACC-257) was > 100 µM (inactive) and the GI50 (M14) was > 100 µM (inactive). The GI50 (NCI/ADR-RES) was > 100 µM (inactive), the GI50 (IGROV-1) was > 100 µM (inactive) and the GI50 (ACHN) was > 100 µM (inactive). The GI50 (SK-MEL-2) was > 100 µM (inactive), the GI50 (CCRF-CEM) was > 100 µM (inactive) and the GI50 (TK-10) was > 100 µM (inactive). The GI50 (MDA-MB-231) was 97.1 µM (inactive), the GI50 (SF-539) was 43.6 µM (inactive) and the GI50 (MDA-N) was > 100 µM (inactive). The GI50 (DU-145) was > 100 µM (inactive), the GI50 (NCI-H522) was > 100 µM (inactive) and the GI50 (Malme-3M) was > 100 µM (inactive). The GI50 (OVCAR-8) was 49.5 µM (inactive), the GI50 (A498) was > 100 µM (inactive) and the GI50 (HL-60) was > 100 µM (inactive). For the same compound, the GI50 (MOLT-4) was > 100 µM (inactive), the GI50 (CAKI-1) was > 100 µM (inactive) and the GI50 (Hs-578T) was 41.3 µM (inactive). For the same compound, the GI50 (SK-OV-3) was > 100 µM (inactive), the GI50 (KM12) was > 100 µM (inactive) and the GI50 (T47D) was > 100 µM (inactive). The GI50 (UACC-62) was > 100 µM (inactive).
